The source of these data is publication PMC11110756 (RSC Advances, 2024).

Series [1] has as its system A549. Description: MTT assay, antiproliferative activity on lung cancer A549. The class given is cell-based, human. To be noted: for cytotoxicity level in words, A549: text grading. Background: Formazan colour is commonly taken as a measure of viable cells.
Series [2] relates to Caco-2. Put plainly: MTT assay, antiproliferative activity on colorectal cancer Caco-2. The class given is cell-based, human. To be noted: for cytotoxicity level in words, Caco-2: text grading; for SI (CaCo-2): selectivity index WI38 vs CaCo-2.
In series [3] the test system is WI38. Put plainly: MTT assay, cytotoxicity on normal lung fibroblast WI38. The class given is cell-based, human. To be noted: read-out: IC50 WI38.
In series [4] the test system is A549. To be noted: read-out: IC50 A549; reference drug; cited from earlier work.
[5] abbreviates: Homo sapiens, A549, read-out: IC50 A549.
Setting [6] is: Homo sapiens, Caco-2, read-out: IC50 CaCo-2.

Read-outs that look alike come from different tables or passages of the source.

By IC50 is commonly meant the midpoint of a concentration-inhibition curve. With `CCOC(=O)Cn1cc(COc2ccccc2-c2nc(-c3ccccc3)no2)nn1` [Compound 5a, Ethyl 2-(4-((2-(3-phenyl-1,2,4-oxadiazol-5-yl)phenoxy)methyl)-1H-1,2,3-triazol-1-yl)acetate], the IC50 stood at 7.4 µM in series [1] (setting [5]); 26.3 µM in series [2] (setting [6]); 14.3 µM in series [3] (Homo sapiens, WI-38, 72 h). In series [2] (MTT), the “cytotoxicity level in words, Caco-2” value is reported as “moderate”. Further, the “SI (CaCo-2)” value in series [2] was found to be 0.54.

For the molecule `CCOC(=O)Cn1cc(COc2ccccc2-c2nc(Cc3ccccc3)no2)nn1` [Compound 5b, Ethyl 2-(4-((2-(3-benzyl-1,2,4-oxadiazol-5-yl)phenoxy)methyl)-1H-1,2,3-triazol-1-yl)acetate], the IC50 in series [1] (setting [5]) amounted to 10.5 µM; in series [2] (setting [6]) it was 47.7 µM; in series [3] (Homo sapiens, WI-38, 72 h), 19.5 µM. The “cytotoxicity level in words, Caco-2” value in series [2] (MTT) was “moderate”. Moreover, the “SI (CaCo-2)” value in series [2] is given as 0.41.

In the case of `NC(=O)Cn1cc(COc2ccccc2-c2nc(-c3ccccc3)no2)nn1` [Compound 6a, 2-(4-((2-(3-Phenyl-1,2,4-oxadiazol-5-yl)phenoxy)methyl)-1H-1,2,3-triazol-1-yl)acetamide], the IC50 in series [1] (setting [5]) came out at 12.7 µM; in series [2] (setting [6]), 14.1 µM; in series [3] (Homo sapiens, WI-38, 72 h) it was 29.8 µM. Moreover, the “SI (CaCo-2)” value in series [2] is 2.11.

Take `NC(=O)Cn1cc(COc2ccccc2-c2nc(Cc3ccccc3)no2)nn1` [Compound 6b, 2-(4-((2-(3-Benzyl-1,2,4-oxadiazol-5-yl)phenoxy)methyl)-1H-1,2,3-triazol-1-yl)acetamide]: the IC50 was found to be 3.56 µM in series [1] (setting [5]); 11.5 µM in series [2] (setting [6]); 15.9 µM in series [3] (Homo sapiens, WI-38, 72 h). The “SI (CaCo-2)” value in series [2] amounted to 1.38.

As for `O=C(O)Cn1cc(COc2ccccc2-c2nc(-c3ccccc3)no2)nn1` [Compound 7a, 2-(4-((2-(3-Phenyl-1,2,4-oxadiazol-5-yl)phenoxy)methyl)-1H-1,2,3-triazol-1-yl)acetic acid], the IC50 in series [1] (setting [5]) was 210 µM; in series [2] (setting [6]), 98.1 µM; in series [3] (Homo sapiens, WI-38, 72 h), 22.4 µM. The “cytotoxicity level in words, A549” value in series [1] (MTT) is “weak to inactive”. Besides, the “cytotoxicity level in words, Caco-2” value in series [2] (MTT) is “weak to inactive”. The “SI (CaCo-2)” value in series [2] worked out at 0.23.

In the case of `O=C(O)Cn1cc(COc2ccccc2-c2nc(Cc3ccccc3)no2)nn1` [Compound 7b, 2-(4-((2-(3-Benzyl-1,2,4-oxadiazol-5-yl)phenoxy)methyl)-1H-1,2,3-triazol-1-yl)acetic acid], the IC50 in series [1] (setting [5]) was 86 µM; in series [2] (setting [6]), 173 µM; in series [3] (Homo sapiens, WI-38, 72 h), 83.8 µM. The “cytotoxicity level in words, A549” value in series [1] (MTT) was “weak to inactive”. The “cytotoxicity level in words, Caco-2” value in series [2] (MTT) was “weak to inactive”. Moreover, in series [2], the “SI (CaCo-2)” value is 0.48.

With `NNC(=O)Cn1cc(COc2ccccc2-c2nc(-c3ccccc3)no2)nn1` [Compound 8a, 2-(4-((2-(3-Phenyl-1,2,4-oxadiazol-5-yl)phenoxy)methyl)-1H-1,2,3-triazol-1-yl)acetohydrazide], the IC50 in series [1] (setting [5]) was 13.1 µM; in series [2] (setting [6]), 12.9 µM; in series [3] (Homo sapiens, WI-38, 72 h), 30.6 µM. In addition, in series [2], the “SI (CaCo-2)” value was found to be 2.38.

As to `NNC(=O)Cn1cc(COc2ccccc2-c2nc(Cc3ccccc3)no2)nn1` [Compound 8b, 2-(4-((2-(3-Benzyl-1,2,4-oxadiazol-5-yl)phenoxy)methyl)-1H-1,2,3-triazol-1-yl)acetohydrazide], the IC50 in series [1] (setting [5]) turned out to be 4.27 µM; in series [2] (setting [6]), 4.44 µM; in series [3] (Homo sapiens, WI-38, 72 h), 3.6 µM. Moreover, in series [2], the “SI (CaCo-2)” value is recorded as 0.81.

Regarding `O=C(Cn1cc(COc2ccccc2-c2nc(-c3ccccc3)no2)nn1)NN=Cc1ccccc1O` [Compound 9a, N′-(2-Hydroxybenzylidene)-2-(4-((2-(3-phenyl-1,2,4-oxadiazol-5-yl)phenoxy)methyl)-1H-1,2,3-triazol-1-yl)acetohydrazide], the IC50 in series [1] (setting [5]) was determined as 6.52 µM; in series [2] (setting [6]) it was 3.37 µM; in series [3] (Homo sapiens, WI-38, 72 h) it was 6.1 µM. Besides, the “SI (CaCo-2)” value in series [2] came out at 1.81.

As to `O=C(Cn1cc(COc2ccccc2-c2nc(Cc3ccccc3)no2)nn1)NN=Cc1ccccc1O` [Compound 9b, 2-(4-((2-(3-Benzyl-1,2,4-oxadiazol-5-yl)phenoxy)methyl)-1H-1,2,3-triazol-1-yl)-N'-(2-hydroxybenzylidene)acetohydrazide], the IC50 in series [1] (setting [5]) is 2.51 µM; in series [2] (setting [6]) it was 2.89 µM; in series [3] (Homo sapiens, WI-38, 72 h), 2.12 µM. Also, the “SI (CaCo-2)” value in series [2] was 0.73.

Turning to `Cc1c(O)ncc(COP(=O)([O-])O)c1C=NNC(=O)Cn1cc(COc2ccccc2-c2nc(-c3ccccc3)no2)nn1.[Na+]` [Compound 10a, Sodium-(6-hydroxy-5-methyl-4-((2-(2-(4-((2-(3-phenyl-1,2,4-oxadiazol-5-yl)phenoxy)methyl)-1H-1,2,3-triazol-1-yl)acetyl)hydrazonol)methyl)pyridin-3-yl)methyl hydrogen phosphate], the “cytotoxicity level in words, A549” value in series [1] (MTT) was “moderate”. Besides, the IC50 in series [1] (read-out: IC50 A549, MTT, lung cancer A549) was 29.5 µM; in series [2] (read-out: IC50 CaCo-2, MTT, colorectal cancer Caco-2), 26.7 µM; in series [3] (MTT, normal lung fibroblast WI38, 72 h) it was 9.02 µM. The “cytotoxicity level in words, Caco-2” value in series [2] (MTT) was “moderate”. Also, the “SI (CaCo-2)” value in series [2] is given as 0.34.

Regarding `Cc1c(O)ncc(COP(=O)([O-])O)c1C=NNC(=O)Cn1cc(COc2ccccc2-c2nc(Cc3ccccc3)no2)nn1.[Na+]` [Compound 10b, Sodium-(4-((2-(2-(4-((2-(3-benzyl-1,2,4-oxadiazol-5-yl)phenoxy)methyl)-1H-1,2,3-triazol-1-yl)acetyl)hydrazineylidene)methyl)-6-hydroxy-5-methylpyridin-3-yl)methyl hydrogen phosphate], the IC50 amounted to 37.3 µM in series [1] (setting [5]); 44.5 µM in series [2] (setting [6]); 32.8 µM in series [3] (Homo sapiens, WI-38, 72 h). For the same molecule, in series [1] (MTT), the “cytotoxicity level in words, A549” value was “moderate”. Further, the “cytotoxicity level in words, Caco-2” value in series [2] (MTT) is on record as “moderate”. Also, in series [2], the “SI (CaCo-2)” value is listed as 0.74.

Turning to `O=C(Cn1cc(COc2ccccc2-c2nc(-c3ccccc3)no2)nn1)NNC(=S)Nc1ccccc1` [Compound 11a, N-Phenyl-2-(2-(4-((2-(3-phenyl-1,2,4-oxadiazol-5-yl)phenoxy)methyl)-1H-1,2,3-triazol-1-yl)acetyl)hydrazine-1-carbothioamide], the IC50 in series [1] (setting [5]) worked out at 12.4 µM; in series [2] (setting [6]) it was 32.2 µM; in series [3] (Homo sapiens, WI-38, 72 h) it was 21.6 µM. Moreover, in series [2] (MTT), the “cytotoxicity level in words, Caco-2” value was “moderate”. For the same molecule, the “SI (CaCo-2)” value in series [2] amounted to 0.67.

Consider `O=C(Cn1cc(COc2ccccc2-c2nc(Cc3ccccc3)no2)nn1)NNC(=S)Nc1ccccc1` [Compound 11b, 2-(2-(4-((2-(3-Benzyl-1,2,4-oxadiazol-5-yl)phenoxy)methyl)-1H-1,2,3-triazol-1-yl)acetyl)-N-phenylhydrazine-1-carbothioamide], for which the IC50 turned out to be 10.3 µM in series [1] (setting [5]); 16.4 µM in series [2] (setting [6]); 34 µM in series [3] (Homo sapiens, WI-38, 72 h). Further, the “SI (CaCo-2)” value in series [2] is given as 2.08.

Take `COc1cccc2c1C(=O)c1c(O)c3c(c(O)c1C2=O)C[C@@](O)(C(=O)CO)C[C@@H]3O[C@H]1C[C@H](N)[C@H](O)[C@H](C)O1` [Doxorubicin, reference compound]: the IC50 is 1 µM in series [1] (setting [5]); 1.3 µM in series [2] (setting [6]); 4.32 µM in series [3] (Homo sapiens, WI-38, 72 h). Also, the “SI (CaCo-2)” value in series [2] is on record as 3.32.

For `COc1cc([C@@H]2c3cc4c(cc3[C@@H](O[C@@H]3O[C@@H]5CO[C@@H](C)O[C@H]5[C@H](O)[C@H]3O)[C@H]3COC(=O)[C@H]23)OCO4)cc(OC)c1O` [etoposide], the IC50 in series [4] was 3.08 µM.
